What is called Kb is the equilibrium dissociation constant of an antagonist, usually derived from a functional assay. A high value points to a less potent antagonist.

In the assay the target is T1, human orexin-2 (hOX2) receptor (Homo sapiens, UniProt O43614).
T1 construct: expressed in transfected cells
T1 sequence (O43614 1-444): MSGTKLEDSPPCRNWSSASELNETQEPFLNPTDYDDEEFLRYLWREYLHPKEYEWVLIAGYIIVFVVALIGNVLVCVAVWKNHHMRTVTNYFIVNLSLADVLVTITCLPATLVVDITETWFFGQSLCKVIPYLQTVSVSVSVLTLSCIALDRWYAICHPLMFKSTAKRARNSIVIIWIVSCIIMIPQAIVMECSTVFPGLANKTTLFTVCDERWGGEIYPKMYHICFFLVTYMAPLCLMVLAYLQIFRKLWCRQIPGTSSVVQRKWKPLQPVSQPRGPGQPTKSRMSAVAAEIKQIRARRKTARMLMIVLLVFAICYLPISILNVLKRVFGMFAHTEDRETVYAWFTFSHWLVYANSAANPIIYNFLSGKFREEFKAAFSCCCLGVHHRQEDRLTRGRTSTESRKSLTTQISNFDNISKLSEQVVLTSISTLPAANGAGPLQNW
The assay is described as follows: Intracellular Ca2+ mobilization assay (FLIPR), CHO(dHFr-) cells expressing hOX2, orexin-A as agonist. As to conditions: antagonist Kb=IC50/(1+[A]/EC50); orexin-A at EC80; CHO(dHFr-)-OX2R cells; antagonist applied 25 min before agonist. In kind it is cell-based. In short, it runs like this: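 Cells loaded with 4 μM Fluo-4 AM (1 h, 37° C) in HBSS/20 mM HEPES/2.5 mM probenecid; antagonists (11 concentrations, 0.0001-10 μM) added 25 min at 37° C before orexin-A at its daily-determined EC80. Peak fluorescence minus basal fitted to Hill equation for IC50; Kb=IC50/(1+[A]/EC50).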
In general terms: Calcium assays in cells follow changes in intracellular calcium, usually with a dye or a luminescent sensor.
`COc1cccc(OC)c1C(=O)N1CCC(Nc2nc3ccc(Cl)cc3s2)C1` (centres unmarked) [Example 7, [3-(6-Chloro-benzothiazol-2-ylamino)-pyrrolidin-1-yl]-(2,6-dimethoxy-phenyl)-methanone] had an antagonist equilibrium constant (Kb) of 0.0228 µM. This counts as double-digit nanomolar.

`O=C(c1ccccc1OC(F)(F)C(F)F)N1CC[C@@H](Nc2nc3ccc(Cl)cc3o2)C1` [Example 82, [(R)-3-(6-Chloro-benzooxazol-2-ylamino)-pyrrolidin-1-yl]-[2-(1,1,2,2-tetrafluoro-ethoxy)-phenyl]-methanone] had a Kb of 0.0041 µM.

As for `Cc1noc(-c2ccccc2C(=O)N2CC[C@@H](Nc3nc4cc(F)cc(F)c4s3)C2)n1` [Example 135, [(R)-3-(5,7-Difluoro-benzothiazol-2-ylamino)-pyrrolidin-1-yl]-[2-(3-methyl-[1,2,4]oxadiazol-5-yl)-phenyl]-methanone], the Kb is 0.0394 µM.

In turn, `Cc1nc(-c2ccccc2)c(C(=O)N2CC[C@@H](Nc3nc4ccc(Cl)cc4o3)C2)s1` [Example 78, [(R)-3-(6-Chloro-benzooxazol-2-ylamino)-pyrrolidin-1-yl]-(2-methyl-4-phenyl-thiazol-5-yl)-methanone] gave an antagonist dissociation constant (Kb) of 0.0145 µM.

Turning to `Cc1ccc(C(F)(F)F)c(C(=O)N2CC[C@@H](Nc3ccnc(-c4ccccc4)n3)C2)c1` [Example 200, (5-Methyl-2-trifluoromethyl-phenyl)-[(R)-3-(2-phenyl-pyrimidin-4-ylamino)-pyrrolidin-1-yl]-methanone], the antagonist dissociation constant (Kb) came to 0.0073 µM. Compared with the last compound, the Kb is about 2-fold lower.

The compound `O=C(c1ccccc1C(F)(F)F)N1CC[C@@H](Nc2cnc3ccccc3n2)C1` [Example 182, [(R)-3-(Quinoxalin-2-ylamino)-pyrrolidin-1-yl]-(2-trifluoromethyl-phenyl)-methanone] returned an antagonist equilibrium constant (Kb) of 0.027 µM.

On to `CSc1ccccc1C(=O)N1CC[C@@H](Nc2nc3ccc(Cl)cc3o2)C1` [Example 53, [(R)-3-(6-Chloro-benzooxazol-2-ylamino)-pyrrolidin-1-yl]-(2-methylsulfanyl-phenyl)-methanone], for which the Kb amounted to 0.0299 µM.

In the case of `Cc1noc(-c2ccccc2C(=O)N2CC[C@@H](Nc3cnc4cc(F)c(F)cc4n3)C2)n1` [Example 169, [(R)-3-(6,7-Difluoro-quinoxalin-2-ylamino)-pyrrolidin-1-yl]-[2-(3-methyl-[1,2,4]oxadiazol-5-yl)-phenyl]-methanone], the Kb amounted to 0.0021 µM.

For `COc1cccc(OC)c1C(=O)N1CC[C@@H](Nc2nc3ccc(F)cc3o2)C1` [Example 95, (2,6-Dimethoxy-phenyl)-[(R)-3-(6-fluoro-benzooxazol-2-ylamino)-pyrrolidin-1-yl]-methanone], the antagonist dissociation constant (Kb) is 0.0426 µM.

In turn, `Cc1nc(C(=O)N2CC[C@@H](Nc3nc4ccc(F)cc4s3)C2)c(-c2ccccc2)s1` [Example 120, [(R)-3-(6-Fluoro-benzothiazol-2-ylamino)-pyrrolidin-1-yl]-(2-methyl-5-phenyl-thiazol-4-yl)-methanone] registered an antagonist equilibrium constant (Kb) of 0.0188 µM.

As to `O=C(c1ccccc1OC(F)(F)C(F)F)N1CC[C@@H](Nc2cnc3ccc(Cl)cc3n2)C1` [Example 192, [(R)-3-(7-Chloro-quinoxalin-2-ylamino)-pyrrolidin-1-yl]-[2-(1,1,2,2-tetrafluoro-ethoxy)-phenyl]-methanone], the Kb worked out at 0.0324 µM. Against the preceding compound, the Kb is about 1.7-fold higher.

The compound `O=C(c1ccccc1OC(F)F)N1CC[C@@H](Nc2nc3ccc(Cl)cc3o2)C1` [Example 56, [(R)-3-(6-Chloro-benzooxazol-2-ylamino)-pyrrolidin-1-yl]-(2-difluoromethoxy-phenyl)-methanone] returned an antagonist dissociation constant (Kb) of 0.047 µM. The Kb values of the last two compounds are within 1.5-fold of each other.

With `O=C(c1ccccc1OC(F)(F)F)N1CC[C@@H](Nc2nc3ccc(Cl)cc3o2)C1` [Example 71, [(R)-3-(6-Chloro-benzooxazol-2-ylamino)-pyrrolidin-1-yl]-(2-trifluoromethoxy-phenyl)-methanone], the Kb came out at 0.0097 µM.

Turning to `O=C(c1ccccc1OC(F)(F)C(F)F)N1CC[C@@H](Nc2nc3c(F)cccc3s2)C1` [Example 123, [(R)-3-(4-Fluoro-benzothiazol-2-ylamino)-pyrrolidin-1-yl]-[2-(1,1,2,2-tetrafluoro-ethoxy)-phenyl]-methanone], the Kb turned out to be 0.0032 µM.

On to `O=C(c1ccccc1OC(F)(F)C(F)F)N1CC[C@@H](Nc2cnc3cc(Cl)ccc3n2)C1` [Example 175, [(R)-3-(6-Chloro-quinoxalin-2-ylamino)-pyrrolidin-1-yl]-[2-(1,1,2,2-tetrafluoro-ethoxy)-phenyl]-methanone], for which the Kb worked out at 0.0187 µM.

The compound `Cc1cccc(-c2ccccc2C(=O)N2CC[C@@H](Nc3nc4ccc(Cl)cc4o3)C2)c1` [Example 75, [(R)-3-(6-Chloro-benzooxazol-2-ylamino)-pyrrolidin-1-yl]-(3′-methyl-biphenyl-2-yl)-methanone] yielded an antagonist equilibrium constant (Kb) of 0.0163 µM.

Regarding `Cc1nc(C(=O)N2CC[C@@H](Nc3nc4ccc(F)c(F)c4o3)C2)c(-c2ccccc2)s1` [Example 155, [(R)-3-(6,7-Difluoro-benzooxazol-2-ylamino)-pyrrolidin-1-yl]-(2-methyl-5-phenyl-thiazol-4-yl)-methanone], the antagonist dissociation constant (Kb) was 0.0304 µM. Against the preceding compound, the Kb is about 1.9-fold higher.

Turning to `O=C(c1ccccc1OC(F)(F)F)N1CC[C@@H](Nc2nc3c(F)cccc3s2)C1` [Example 122, [(R)-3-(4-Fluoro-benzothiazol-2-ylamino)-pyrrolidin-1-yl]-(2-trifluoromethoxy-phenyl)-methanone], the Kb turned out to be 0.0193 µM.

In turn, `Cc1ccc(C(F)(F)F)c(C(=O)N2CC[C@@H](Nc3nc4c(Cl)cccc4s3)C2)c1` [Example 203] returned an antagonist equilibrium constant (Kb) of 0.008 µM.

`Cc1ccc(C(F)(F)F)c(C(=O)N2CC[C@@H](Nc3cnc4cc(C)c(Cl)cc4n3)C2)c1` [Example 212] yielded a Kb of 0.0086 µM.

`O=C(c1ccccc1-c1cccnc1)N1CC[C@@H](Nc2nc3ccc(Cl)cc3o2)C1` [Example 65, [(R)-3-(6-Chloro-benzooxazol-2-ylamino)-pyrrolidin-1-yl]-(2-pyridin-3-yl-phenyl)-methanone] displayed a Kb of 0.0272 µM. Against the preceding compound, the Kb is about 3.2-fold higher.

With `Cc1onc(-c2ccccc2)c1C(=O)N1CC[C@@H](Nc2nc3ccc(F)cc3s2)C1` [Example 116, [(R)-3-(6-Fluoro-benzothiazol-2-ylamino)-pyrrolidin-1-yl]-(5-methyl-3-phenyl-isoxazol-4-yl)-methanone], the Kb came to 0.0261 µM. The Kb values of the last two compounds are within 1.5-fold of each other.

On to `COc1cccc(OC)c1C(=O)N1CC[C@@H](Nc2nc3c(C)cccc3o2)C1` [Example 106, (2,6-Dimethoxy-phenyl)-[(R)-3-(4-methyl-benzooxazol-2-ylamino)-pyrrolidin-1-yl]-methanone], for which the Kb worked out at 0.0129 µM.

`Cc1ccc(C(F)(F)F)c(C(=O)N2CC[C@@H](Nc3cnc4cc(C(C)(C)C)ccc4n3)C2)c1` [Example 204] yielded a Kb of 0.0052 µM.

With `O=C(c1ccccc1C(F)(F)F)N1CC[C@@H](Nc2nc3ccc(Cl)cc3o2)C1` [Example 63, [(R)-3-(6-Chloro-benzooxazol-2-ylamino)-pyrrolidin-1-yl]-(2-trifluoromethyl-phenyl)-methanone], the Kb was found to be 0.0219 µM.

With `Cc1ccc(C(F)(F)F)c(C(=O)N2CC[C@@H](Nc3nc4ccc(F)cc4s3)C2)c1` [Example 115, [(R)-3-(6-Fluoro-benzothiazol-2-ylamino)-pyrrolidin-1-yl]-(5-methyl-2-trifluoromethyl-phenyl)-methanone], the antagonist dissociation constant (Kb) was found to be 0.0068 µM.

(Values after patent publication US7897627B2, “Heteroaryl derivatives as orexin receptor antagonists” (Hoffmann-La Roche Inc., priority 2007, dated 2011).)
